Data reported in patent publication US7381554B2, “UDP-N-acetylglucosamine: galactose-β1,3-N-acetylgalactosamine-α-R/N-acetylglucosamine-β1,3-N-acetylgalactosamine-α-R (GlcNAc to GalNAc) β1,6-N-acetylglucosaminyltransferase, C2/4GnT” (Glycozym ApS, priority 1998, dated 2008).

What was measured:
C2/4GnT = biological target: T1, C2/4GnT (Homo sapiens, UniProt O95395); test: C2/4GnT GlcNAc-transferase activity assay with acceptor/donor substrates; assay type: biochemical; settings: for Substrate specificity: C2/4GnT activity, 2 mM: acceptor substrate 2 mM; for Substrate specificity: C2/4GnT activity, 2 mM / Substrate specificity: C2/4GnT activity, 10 mM: partially purified media of infected High Five cells, background subtracted; for Substrate specificity: C2/4GnT activity, 10 mM: acceptor substrate 10 mM; for C2/4GnT activity with acceptor substrate (in words): as acceptor substrate; for Substrate inhibition of C2/4GnT enzyme activity: high acceptor concentrations up to 20 mM; for C2/4GnT activity with donor substrate (in words): as donor substrate, data not shown
T1 construct: An expression construct designed to encode amino acid residues 31-438 of C2/4GnT was prepared by PCR using P1 DNA; gp67 secretion signal of vector pAcGP67A (own knowledge of the vector); made in house; host or cells: Sf9 cells (culture supernatant, standard assays); High Five cells (partially purified enzyme, kinetics)
T1 sequence (O95395 31-438): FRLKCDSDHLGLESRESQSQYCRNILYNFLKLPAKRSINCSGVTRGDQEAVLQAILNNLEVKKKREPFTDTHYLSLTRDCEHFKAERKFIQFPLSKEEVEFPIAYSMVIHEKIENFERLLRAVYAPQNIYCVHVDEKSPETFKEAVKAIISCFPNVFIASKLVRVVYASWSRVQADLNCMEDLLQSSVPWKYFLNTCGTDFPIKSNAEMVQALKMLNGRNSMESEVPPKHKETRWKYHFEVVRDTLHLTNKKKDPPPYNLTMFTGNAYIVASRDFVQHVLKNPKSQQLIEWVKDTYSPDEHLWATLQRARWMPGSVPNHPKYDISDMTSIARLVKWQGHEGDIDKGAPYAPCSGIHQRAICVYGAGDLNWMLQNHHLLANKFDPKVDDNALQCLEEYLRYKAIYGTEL
Description: (§1) An expression construct designed to encode amino acid residues 31-438 of C2/4GnT was prepared by PCR using P1 DNA, and the primer pair TSHC55 (5′-[…]-3′) (SEQ ID NO:8) and TSHC45 (SEQ ID NO:5) (FIG. 2). The PCR product was cloned into the EcoRI site of pAcGP67A (PharMingen), and the insert was fully sequenced. pAcGP67-C2/4GnT-sol was co-transfected with Baculo-Gold™ DNA (PharMingen) as described previously (14). Recombinant Baculo-virus were obtained after two successive amplifications in Sf9 cells grown in serum-containing medium, and titers of virus were estimated by titration in 24-well plates with monitoring of enzyme activities.
(§2) Controls included the pAcGP67-GalNAc-T3-sol (15). The kinetic properties were determined with partially purified enzymes expressed in High Five™ cells. Partial purification was performed by consecutive chromatography on Amberlite IRA-95, DEAE-Sephacryl and CM-Sepharose essentially as described (16).
as §1, with “sequenced. Plasmids” for “sequenced.”, “pAcGP67-C2/4GnT-sol and pAcGP67-C2GnT-sol were” for “pAcGP67-C2/4GnT-sol was”, “activities. Controls included the pAcGP67-GalNAc-T3-sol (15).” for “activities.”
(§3) Standard assays were performed using culture supernatant from infected cells in 50 μl reaction mixtures containing 100 mM MES […], 10 mM EDTA, 10 mM 2-Acetamido-2-deoxy-D-glucono-1,5-lacton, 180 μM UDP-[^14C]-GlcNAc (6,000 cpm/nmol) (Amersham Pharmacia Biotech), and the indicated concentrations of acceptor substrates (Sigma and Toronto Research Laboratories Ltd., see Table I for structures). Semi-purified C2/4GnT was assayed in 50 μl reaction mixtures containing 100 mM MES (pH 7), 5 mM EDTA, 90 μM UDP-[^14C]-GlcNAc (3,050 cpm/nmol) (Amersham Pharmacia Biotech), and the indicated concentrations of acceptor substrates. Reaction products were quantified by chromatography on Dowex AGI-X8.

C2GnT = biological target: T2, C2GnT (Homo sapiens, UniProt Q02742); test: C2GnT GlcNAc-transferase activity assay with acceptor substrates; assay type: biochemical; settings: partially purified media of infected High Five cells, background subtracted; for Substrate specificity: C2GnT activity, 2 mM: acceptor substrate 2 mM; for Substrate specificity: C2GnT activity, 10 mM: acceptor substrate 10 mM
T2 construct: Plasmids pAcGP67-C2/4GnT-sol and pAcGP67-C2GnT-sol were co-transfected with; gp67 secretion signal of vector pAcGP67 (own knowledge of the vector); made in house; host or cells: Sf9 cells (baculovirus, culture supernatant)
T2 sequence (Q02742 33-428 limits assumed): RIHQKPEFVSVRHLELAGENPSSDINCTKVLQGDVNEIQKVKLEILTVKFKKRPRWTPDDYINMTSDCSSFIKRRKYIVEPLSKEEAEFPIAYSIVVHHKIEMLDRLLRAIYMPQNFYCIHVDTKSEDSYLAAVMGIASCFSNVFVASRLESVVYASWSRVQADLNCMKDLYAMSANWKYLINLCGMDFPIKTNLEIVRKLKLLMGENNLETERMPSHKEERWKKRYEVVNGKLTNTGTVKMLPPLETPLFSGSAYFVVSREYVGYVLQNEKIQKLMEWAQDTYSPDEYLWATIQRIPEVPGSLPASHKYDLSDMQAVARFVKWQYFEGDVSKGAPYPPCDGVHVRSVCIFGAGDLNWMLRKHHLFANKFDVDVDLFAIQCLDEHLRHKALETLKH
Description: as §2
as §1, with “sequenced. Plasmids” for “sequenced.”, “pAcGP67-C2/4GnT-sol and pAcGP67-C2GnT-sol were” for “pAcGP67-C2/4GnT-sol was”, “activities. Controls included the pAcGP67-GalNAc-T3-sol (15).” for “activities.”
as §3

SMILES | Substrate specificity: C2/4GnT activity, 2 mM (C2/4GnT) [nmol/h/mg] | Substrate specificity: C2/4GnT activity, 10 mM (C2/4GnT) [nmol/h/mg] | C2/4GnT activity with acceptor substrate (in words) (C2/4GnT) | Substrate specificity: C2GnT activity, 2 mM (C2GnT) [nmol/h/mg] | Substrate specificity: C2GnT activity, 10 mM (C2GnT) [nmol/h/mg] | Substrate inhibition of C2/4GnT enzyme activity (C2/4GnT) | C2/4GnT activity with donor substrate (in words) (C2/4GnT)
CC(=O)N[C@H]1[C@H](O[C@H]2[C@@H](O)[C@@H](CO)O[C@@H](O[C@H]3[C@H](O)[C@@H](O)C(O)O[C@@H]3CO)[C@@H]2O)O[C@H](CO)[C@@H](O[C@@H]2O[C@H](CO)[C@H](O)[C@H](O)[C@H]2O)[C@@H]1O (mixture of isomers) [lacto-N-neo-tetraose] | <0.1 | <0.1 | no activity | <0.1 | <0.1 |  | 
CC(=O)N[C@H]1[C@@H](Oc2ccc([N+](=O)[O-])cc2)O[C@H](CO)[C@H](O)[C@@H]1O [α-D-GalNAc-1-p-Nph] | <0.1 | <0.1 | no activity | <0.1 | <0.1 |  | 
CC(=O)NC1C(OC2C(O)C(CO)OC(Oc3ccc([N+](=O)[O-])cc3)C2NC(C)=O)OC(CO)C(O)C1O [β-D-GlcNAc-(1-3)-α-D-GalNAc-1-p-Nph] | 5.2 | 7.4 |  | <0.1 | <0.1 | No substrate inhibition | 
CC(=O)N[C@H]1C(O)O[C@H](CO)[C@H](O)[C@@H]1O (stereo partly drawn) [D-GalNAc] | <0.1 | <0.1 |  | <0.1 | <0.1 |  | 
CC(=O)N[C@H]1[C@@H](OP(=O)(O)OP(=O)(O)OC[C@H]2O[C@@H](n3ccc(=O)[nH]c3=O)[C@H](O)[C@@H]2O)O[C@H](CO)[C@@H](O)[C@@H]1O [UDP-GlcNAc, UDP-N-acetylglucosamine] |  |  |  |  |  |  | strict donor substrate specificity
CC(=O)N[C@@H]1[C@@H](O[C@@H]2O[C@H](CO)[C@H](O)[C@H](O)[C@H]2O)[C@@H](O)[C@@H](CO)O[C@@H]1O [β-D-Gal-(1-3)-α-D-GalNAc] | 2.8 | 7.3 |  | 9.6 | 19.0 |  | 

Continued, values first:

Substrate specificity: C2/4GnT activity, 2 mM (C2/4GnT) [nmol/h/mg] | Substrate specificity: C2/4GnT activity, 10 mM (C2/4GnT) [nmol/h/mg] | C2/4GnT activity with acceptor substrate (in words) (C2/4GnT) | Substrate specificity: C2GnT activity, 2 mM (C2GnT) [nmol/h/mg] | Substrate specificity: C2GnT activity, 10 mM (C2GnT) [nmol/h/mg] | Substrate inhibition of C2/4GnT enzyme activity (C2/4GnT) | C2/4GnT activity with donor substrate (in words) (C2/4GnT) | SMILES
<0.1 | <0.1 | no activity | <0.1 | <0.1 |  |  | CO[C@@H]1O[C@H](CO)[C@H](O)[C@H](O[C@@H]2O[C@H](CO)[C@@H](O)[C@H](O)[C@H]2NC(C)=O)[C@H]1O [β-D-GlcNAc-(1-3)-β-D-Gal-1-Me]
 |  |  |  |  |  | no activity | CC(=O)N[C@H]1[C@@H](OP(=O)(O)OP(=O)(O)OC[C@H]2O[C@@H](n3ccc(=O)[nH]c3=O)[C@H](O)[C@@H]2O)O[C@H](CO)[C@H](O)[C@@H]1O [UDP-GalNAc]
16.1 | 21.8 |  | 16.2 | 23.6 | No substrate inhibition |  | CC(=O)N[C@H]1[C@@H](Oc2ccc([N+](=O)[O-])cc2)O[C@H](CO)[C@H](O)[C@@H]1O[C@@H]1O[C@H](CO)[C@H](O)[C@H](O)[C@H]1O [β-D-Gal-(1-3)-α-D-GalNAc-1-p-Nph]
